Measured values: patent publication US9695155B2, “Herbicidal substituted pyrimidinyloxy benzene compounds” (E. I. DU PONT DE NEMOURS AND COMPANY, priority 2013, dated 2017)

Columns and labels:
barnyardgrass = test: Test C flooded paddy test; assay type: in vivo, Echinochloa crus-galli; details: Flood, scale 0 to 100 (0 no effect, 100 complete control), 13 to 15 days
Method in brief: (§1)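 Test compounds are applied straight into paddy water held 3 cm above the soil surface, with that flood maintained for the whole test. After 13 to 15 days in the greenhouse, each species is scored visually relative to controls.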

waterhemp = test: Test E preemergence; assay type: in vivo, Amaranthus rudis; details: for Waterhemp plant response rating: scale 0 to 100 (0 no effect, 100 complete control)
Method in brief: (§2)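 Compound in a non-phytotoxic solvent mixture with surfactant was applied preemergence to seeds in silt loam soil, or postemergence to plants 2 to 18 cm tall grown in peat-based potting medium. Plants were kept in a greenhouse for 14 to 21 days, then rated visually against untreated controls on a 0 (no effect) to 100 (complete control) scale.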

goosegrass = test: Test E preemergence; assay type: in vivo, Eleusine indica; details: for Goosegrass plant response rating: scale 0 to 100 (0 no effect, 100 complete control)
Method in brief: as §2

hairy beggarticks = test: Test E preemergence; assay type: in vivo, Bidens pilosa; details: preemergence; for Beggarticks plant response rating: scale 0 to 100 (0 no effect, 100 complete control)
Method in brief: as §2

Italian ryegrass = test: Test E preemergence; assay type: in vivo, Lolium multiflorum; details: for Ryegrass, Italian plant response rating: scale 0 to 100 (0 no effect, 100 complete control)
Method in brief: as §2

dayflower = test: Test E preemergence; assay type: in vivo, Commelina virginica; details: for Dayflower, VA plant response rating: scale 0 to 100 (0 no effect, 100 complete control)
Text: (§3) Seeds of plant species selected from corn (Zea mays), soybean (Glycine max), velvetleaf (Abutilon theophrasti), lambsquarters (Chenopodium album), wild poinsettia (Euphorbia heterophylla), palmer pigweed (Amaranthus palmeri), waterhemp (common waterhemp, Amaranthus rudis), surinam grass (Brachiaria decumbens), large (Lg) crabgrass (Digitaria sanguinalis), Brazilian crabgrass (Digitaria horizontalis), fall panicum (Panicum dichotomiflorum), giant foxtail (Setaria faberii), green foxtail (Setaria viridis), goosegrass (Eleusine indica), johnsongrass (Sorghum halepense), ragweed (common ragweed, Ambrosia elatior), barnyardgrass (Echinochloa crus-galli), sandbur (southern sandbur, Cenchrus echinatus), arrowleaf sida (Sida rhombifolia), Italian ryegrass (Lolium multiflorum), dayflower (Virginia (VA) dayflower, Commelina virginica), field bindweed (Convolvulus arvensis), morningglory (Ipomoea coccinea), nightshade (eastern black nightshade, Solanum ptycanthum), kochia (Kochia scoparia), yellow nutsedge (Cyperus esculentus), cocklebur (common cocklebur, Xanthium strumarium), smartweed (ladysthumb smartweed, and hairy beggarticks (Bidens pilosa), were planted into a silt loam soil and treated preemergence with test chemicals formulated in a non-phytotoxic solvent mixture which included a surfactant.
(§4) At the same time, plants from these crop and weed species and also horseweed (Canada horseweed, Conyza canadensis), waterhemp_RES1, (ALS & Triazine resistant common waterhemp, Amaranthus rudis), and waterhemp_RES2, (ALS & HPPD resistant common waterhemp, Amaranthus rudis) were planted in pots containing Redi-Earth® planting medium (Scotts Company, 14111 Scottslawn Road, Marysville, Ohio 43041) comprising spaghnum peat moss, vermiculite, wetting agent and starter nutrients were treated with postemergence applications of test chemicals formulated in the same manner. Plants ranged in height from 2 to 18 cm for postemergence treatments (1- to 4-leaf stage). Treated plants and controls were maintained in a greenhouse for 14 to 21 days, after which time all species were compared to controls and visually evaluated. Plant response ratings, summarized in Table E, are based on a scale of 0 to 100 where 0 is no effect and 100 is complete control. A dash (-) response means no test result.

soybean = test: Test E preemergence; assay type: in vivo, Glycine max; details: for Soybean plant response rating: scale 0 to 100 (0 no effect, 100 complete control)
Method in brief: as §2

sedge, umbrella = test: Test C flooded paddy test; assay type: in vivo, Cyperus difformis; details: Flood, scale 0 to 100 (0 no effect, 100 complete control), 13 to 15 days
Method in brief: as §1

sandbur = test: Test E preemergence; assay type: in vivo, Cenchrus echinatus; details: for Sandbur plant response rating: scale 0 to 100 (0 no effect, 100 complete control)
Method in brief: as §2

lambsquarters = test: Test E preemergence; assay type: in vivo, Chenopodium album; details: for Lambsquarters plant response rating: scale 0 to 100 (0 no effect, 100 complete control)
Method in brief: as §2

ragweed = test: Test E preemergence; assay type: in vivo, Ambrosia elatior; details: for Ragweed plant response rating: scale 0 to 100 (0 no effect, 100 complete control)
Method in brief: as §2

field bindweed = test: Test E preemergence; assay type: in vivo, Convolvulus arvensis; details: for Field Bindweed plant response rating: scale 0 to 100 (0 no effect, 100 complete control)
Text: as §3, §4

yellow nutsedge = test: Test E preemergence; assay type: in vivo, Cyperus esculentus; details: for Nutsedge, Yellow plant response rating: scale 0 to 100 (0 no effect, 100 complete control)
Method in brief: as §2

[1] = 125 g ai/ha, scale 0 to 100, 0 no effect, 100 complete control

Fc1cnc(Oc2cccc(C(F)F)c2-n2cc(C(F)(F)F)cn2)nc1 [Compound 164]
Plant response rating, Barnyardgrass (barnyardgrass; 31 g ai/ha): 0 | Plant response rating, Barnyardgrass (barnyardgrass; 62 g ai/ha): 0 | Plant response rating, Barnyardgrass (barnyardgrass; 125 g ai/ha): 0 | Plant response rating, Barnyardgrass (barnyardgrass; 250 g ai/ha): 0 | Waterhemp plant response rating (waterhemp; 31 g ai/ha): 65 | Waterhemp plant response rating (waterhemp; 62 g ai/ha): 90 | Plant response rating, Waterhemp (waterhemp; [1]): 90 | Goosegrass plant response rating (goosegrass; 31 g ai/ha): 5 | Goosegrass plant response rating (goosegrass; 62 g ai/ha): 20 | Plant response rating, Goosegrass (goosegrass; [1]): 75 | Beggarticks plant response rating (hairy beggarticks; 16 g ai/ha): 0 | Beggarticks plant response rating (hairy beggarticks; 31 g ai/ha): 0 | Beggarticks plant response rating (hairy beggarticks; 62 g ai/ha): 20 | Plant response rating, Beggarticks (hairy beggarticks; [1]): 20 | Ryegrass, Italian plant response rating (Italian ryegrass; 31 g ai/ha): 0 | Ryegrass, Italian plant response rating (Italian ryegrass; 62 g ai/ha): 30 | Plant response rating, Ryegrass, Italian (Italian ryegrass; [1]): 60 | Dayflower, VA plant response rating (dayflower; 16 g ai/ha): 0 | Dayflower, VA plant response rating (dayflower; 31 g ai/ha): 20 | Dayflower, VA plant response rating (dayflower; 62 g ai/ha): 65 | Plant response rating, Dayflower, VA (dayflower; [1]): 90 | Soybean plant response rating (soybean; 31 g ai/ha): 0 | Soybean plant response rating (soybean; 62 g ai/ha): 15 | Plant response rating, Soybean (soybean; [1]): 70 | Plant response rating, Sedge, Umbrella (sedge, umbrella; 31 g ai/ha): 0 | Plant response rating, Sedge, Umbrella (sedge, umbrella; 62 g ai/ha): 20 | Plant response rating, Sedge, Umbrella (sedge, umbrella; 125 g ai/ha): 75 | Plant response rating, Sedge, Umbrella (sedge, umbrella; 250 g ai/ha): 95 | Sandbur plant response rating (sandbur; 31 g ai/ha): 0 | Sandbur plant response rating (sandbur; 62 g ai/ha): 0 | Plant response rating, Sandbur (sandbur; [1]): 10 | Lambsquarters plant response rating (lambsquarters; 31 g ai/ha): 75 | Lambsquarters plant response rating (lambsquarters; 62 g ai/ha): 98 | Plant response rating, Lambsquarters (lambsquarters; [1]): 100 | Ragweed plant response rating (ragweed; 31 g ai/ha): 0 | Ragweed plant response rating (ragweed; 62 g ai/ha): 25 | Plant response rating, Ragweed (ragweed; [1]): 60 | Field Bindweed plant response rating (field bindweed; 16 g ai/ha): 0 | Field Bindweed plant response rating (field bindweed; 31 g ai/ha): 0 | Field Bindweed plant response rating (field bindweed; 62 g ai/ha): 30 | Plant response rating, Field Bindweed (field bindweed; [1]): 50 | Nutsedge, Yellow plant response rating (yellow nutsedge; 31 g ai/ha): 0 | Nutsedge, Yellow plant response rating (yellow nutsedge; 62 g ai/ha): 0 | Plant response rating, Nutsedge, Yellow (yellow nutsedge; [1]): 20
